Literature values in patent US20080075658A1, “Method of Radiolabeling Formulations for Gamma Scintigraphy Assessment” (priority 2006, published 2008).

Conditions: radioactive decay of the radionuclide

Structure (SMILES) | half life | half-life
[Tc] [Example 99mTc, technetium] | 6.01 h | 
[Cl-].[Cl-].[Cl-].[In+3] [InCl2, indium chloride] | InCl2 half life is 67.2 hrs | 67.2 h
[O-2].[O-2].[O-2].[Sm+3].[Sm+3] [Sm2O3, samarium oxide] | 46.27 h | 
